# Data published in paper PMC2806265, “Divergence of allosteric effects of rapacuronium on binding and function of muscarinic receptors” (BMC Pharmacology, 2009).
# Marks after values point to notes of the source that are not given here.
# Experiments:
# M4 muscarinic receptor [1] = biological target: T1, M4 muscarinic receptor (Homo sapiens, UniProt P08173); assay: [3H]NMS dissociation; settings: + 100 μM rapacuronium
# T1 sequence (P08173 1-479): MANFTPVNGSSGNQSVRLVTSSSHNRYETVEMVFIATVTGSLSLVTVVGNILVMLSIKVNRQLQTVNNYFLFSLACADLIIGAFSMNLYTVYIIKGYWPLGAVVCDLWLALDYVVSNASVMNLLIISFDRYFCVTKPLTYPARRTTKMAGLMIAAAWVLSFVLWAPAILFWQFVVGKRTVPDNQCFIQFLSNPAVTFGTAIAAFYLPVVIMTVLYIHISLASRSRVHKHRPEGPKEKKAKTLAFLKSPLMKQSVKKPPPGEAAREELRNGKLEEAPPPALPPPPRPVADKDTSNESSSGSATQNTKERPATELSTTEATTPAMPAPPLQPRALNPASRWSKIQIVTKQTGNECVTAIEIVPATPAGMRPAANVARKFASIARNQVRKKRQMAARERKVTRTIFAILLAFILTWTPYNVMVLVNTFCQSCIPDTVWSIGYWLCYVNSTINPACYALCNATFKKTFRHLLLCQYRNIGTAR
# M4 muscarinic receptor [2] = biological target: T1, M4 muscarinic receptor; assay: Effect of rapacuronium on 1 nM [3H]NMS binding; set-up: host or cells: CHO cells, stably transfected; membranes
# Description: (§1) Cooperativity factor greater than 1 denotes negative cooperativity and less than 1 positive cooperativity. Due to its log-normal error distribution factors of cooperativity are expressed as negative logarithms (pα) through the manuscript so negative values denotes negative cooperativity and positive value denotes positive cooperativity.
# M5 muscarinic receptor [3] = biological target: T2, M5 muscarinic receptor (Homo sapiens, UniProt P08912); assay: Effect of rapacuronium on 1 nM [3H]NMS binding; set-up: host or cells: CHO cells, stably transfected; membranes
# T2 sequence (P08912 1-532): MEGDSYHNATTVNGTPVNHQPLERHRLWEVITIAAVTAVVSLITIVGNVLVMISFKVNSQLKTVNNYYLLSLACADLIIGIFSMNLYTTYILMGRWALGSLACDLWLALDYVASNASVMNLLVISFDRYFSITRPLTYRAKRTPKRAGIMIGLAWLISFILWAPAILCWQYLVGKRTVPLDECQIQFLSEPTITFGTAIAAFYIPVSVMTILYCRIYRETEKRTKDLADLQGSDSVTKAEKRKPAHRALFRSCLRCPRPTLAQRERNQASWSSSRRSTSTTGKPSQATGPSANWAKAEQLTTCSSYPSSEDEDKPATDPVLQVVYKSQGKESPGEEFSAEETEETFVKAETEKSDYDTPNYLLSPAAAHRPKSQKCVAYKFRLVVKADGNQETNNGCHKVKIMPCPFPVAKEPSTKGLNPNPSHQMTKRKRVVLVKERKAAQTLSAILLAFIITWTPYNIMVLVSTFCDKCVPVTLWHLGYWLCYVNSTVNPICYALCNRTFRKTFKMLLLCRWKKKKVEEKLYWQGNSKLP
# Description: as §1
# M4 muscarinic receptor [4] = biological target: T1, M4 muscarinic receptor; assay: Effect of rapacuronium on high-affinity 20 nM [3H]ACh binding; set-up: host or cells: CHO cells, stably transfected; membranes
# Description: as §1
# M5 muscarinic receptor [5] = biological target: T2, M5 muscarinic receptor; assay: as above; set-up: host or cells: CHO cells, stably transfected; membranes
# Description: as §1
# M4 muscarinic receptor [6] = biological target: T1, M4 muscarinic receptor; assay: Effect of rapacuronium on low-affinity ACh binding ([3H]NMS + GTPγS + ACh); set-up: host or cells: CHO cells, stably transfected; membranes
# Description: (§2) […]. Data are expressed as percent of specific binding in the absence of rapacuronium. […]. […] Data are means ± SE from 3 independent experiments performed in quadruplicates. Curves are fits of Eq. 3 (circles) and Eq. 4 (squares and triangles) to data prior to normalization.
# (§3) […]. […] […].
# M5 muscarinic receptor [7] = biological target: T2, M5 muscarinic receptor; assay: as above; set-up: host or cells: CHO cells, stably transfected; membranes
# Description: as §2, §3
# M2 muscarinic receptor [8] = biological target: T3, M2 muscarinic receptor (Homo sapiens, UniProt P08172); assay: Effect of rapacuronium on high-affinity 20 nM [3H]ACh binding; set-up: host or cells: CHO cells, stably transfected; membrane preparation
# T3 sequence (P08172 1-466): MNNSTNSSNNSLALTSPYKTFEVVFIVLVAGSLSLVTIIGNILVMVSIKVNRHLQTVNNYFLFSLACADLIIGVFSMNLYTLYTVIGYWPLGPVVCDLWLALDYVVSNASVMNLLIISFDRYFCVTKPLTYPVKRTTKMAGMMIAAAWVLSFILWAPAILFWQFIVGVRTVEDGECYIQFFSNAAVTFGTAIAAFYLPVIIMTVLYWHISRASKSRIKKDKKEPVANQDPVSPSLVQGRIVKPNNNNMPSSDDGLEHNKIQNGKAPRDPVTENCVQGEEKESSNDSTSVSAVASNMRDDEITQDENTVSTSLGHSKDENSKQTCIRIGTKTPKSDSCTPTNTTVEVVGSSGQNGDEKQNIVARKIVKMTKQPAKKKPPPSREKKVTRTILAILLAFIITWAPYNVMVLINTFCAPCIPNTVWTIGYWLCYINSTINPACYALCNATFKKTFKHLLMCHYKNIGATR
# Description: as §1
# M2 muscarinic receptor [9] = biological target: T3, M2 muscarinic receptor; assay: [3H]ACh association and dissociation kinetics; type: binding; set-up: host or cells: CHO cells, stably transfected; membrane preparation; settings: 10 μM rapacuronium, 40 nM [^3H]ACh
# Description: y, radioligand binding at time x; kobs, observed rate of association; equilibrium binding Beq = Bottom + Span.
# y, radioligand binding at time x normalized to binding at time 0; koff1 and koff2, dissociation rate constants; f2, fraction of binding site with dissociation rate constant koff2. When both Eq. 7a and 7b were fitted to data the better fit was chosen based on sum of squares F-test and runs test.
# [10] = M4, negative value = negative cooperativity
# [11] = read-out: pKA of rapacuronium (converted)
# [12] = M5, negative value = negative cooperativity
smiles,measurement,setting,value
C=CC[N+]1([C@H]2C[C@H]3[C@@H]4CC[C@H]5C[C@H](OC(C)=O)[C@@H](N6CCCCC6)C[C@]5(C)[C@H]4CC[C@]3(C)[C@H]2OC(=O)CC)CCCCC1 [rapacuronium],"f2, fraction of sites with faster dissociation",M4 muscarinic receptor [1],6.0 ± 2.0%
same,koff1 of [^3H]NMS dissociation,M4 muscarinic receptor [1],0.017 ± 0.001* min^-1
same,koff2 of [^3H]NMS dissociation,M4 muscarinic receptor [1],0.0125 ± 0.00183 s⁻¹
same,"pα, cooperativity with [^3H]NMS",M4 muscarinic receptor [2]; [10],-1.40 ± 0.04
same,Kd,M4 muscarinic receptor [2]; [11],3.8 µM
same,decrease in affinity of [^3H]NMS (cooperativity),M5 muscarinic receptor [3]; M5,35 fold
same,"pα, cooperativity with [^3H]NMS",M5 muscarinic receptor [3]; [12],-1.54 ± 0.05
same,Kd,M5 muscarinic receptor [3]; [11],10.7 µM
same,"pα, cooperativity with [^3H]ACh high affinity binding",M4 muscarinic receptor [4]; [10],-1.51 ± 0.05
same,Kd,M4 muscarinic receptor [4]; [11],3.89 µM
same,"pα, cooperativity with [^3H]ACh high affinity binding",M5 muscarinic receptor [5]; [12],-1.34 ± 0.07
same,Kd,M5 muscarinic receptor [5]; [11],12 µM
same,Kd,M4 muscarinic receptor [6],3.24 µM
same,decrease in ACh low-affinity binding (cooperativity),M4 muscarinic receptor [6]; M4,36 times
same,"pβ, cooperativity with ACh low affinity binding",M4 muscarinic receptor [6]; [10],-1.56 ± 0.07
same,Kd,M5 muscarinic receptor [7],11.2 µM
same,"pβ, cooperativity with ACh low affinity binding",M5 muscarinic receptor [7]; [12],-1.28 ± 0.07
same,"pα, cooperativity with [^3H]ACh high affinity binding","M2 muscarinic receptor [8]; M2, negative value = negative cooperativity",-1.46 ± 0.08
same,Kd,M2 muscarinic receptor [8]; [11],2.82 µM
same,time of peak of [^3H]ACh association,M2 muscarinic receptor [9],around 90 seconds
